Reference: doi:10.1101/839787v1 (bioRxiv, 2019)
Where a SMILES comes first, the peptide text is derived from it. Bridges are numbered along the chain shown (N, C = ends). Where no end group is shown, it is not given here.

How the values were obtained:
[1] = test system: Raw 264 macrophages; test: Inflammatory response in vitro: LPS-activated macrophages; type: cell-based, murine; conditions: 100 nmol/L peptide
[2] = In vitro stability of peptides in human plasma; type: in vitro ADME; conditions: for main metabolite / main degradation product: Mass Spectrometry
[3] = test system: TNBS-induced chronic colitis; test: TNBS-induced chronic colitis; type: in vivo, Balb/c mice; conditions: tolerance regime, treatment during first week only; n=8
[4] = test system: DSS-induced acute colitis; test: DSS-induced acute ulcerative colitis; type: in vivo, C57Bl/6 mice; conditions: 5% DSS, i.p. days 1, 2, 3, day 8
[5] = test system: DSS-induced chronic colitis; test: DSS-induced chronic; type: in vivo, C57Bl/6 mice
[6] = test system: TNBS-induced acute colitis; test: TNBS-induced acute colitis, protective regime; type: in vivo, BALB/c mice; conditions: TNBS 3 mg/mouse, 0.4 mg/kg systemic, n=8
[7] = Aqueous solubility; type: physicochemical; conditions: aqueous buffer solution, observation in words
[8] = test system: TNBS-induced acute colitis; test: TNBS-induced acute colitis, curative regime; type: in vivo, BALB/c mice; conditions: TNBS 3 mg/mouse

Compound: Cc1cc(C)c(C[C@@H]2NC(=O)[C@H](CC(N)=O)NC(=O)[C@H](CCCCN)NC(=O)[C@@H](NC(=O)[C@@H]3CCCN3)CSSC[C@@H](C(=O)N[C@@H](CCCCN)C(=O)O)NC(=O)[C@H](CO)NC(=O)[C@H]([C@@H](C)O)NC(=O)[C@H](Cc3ccccc3)NC(=O)[C@H]([C@@H](C)O)NC(=O)[C@H](CCCCN)NC(=O)[C@@H](Cc3c[nH]c4ccccc34)NC(=O)[C@H](Cc3ccccc3)NC2=O)c(C)c1 [Analog 4, [L-Msa5_D-Trp7_L-Thr11]-CST14]
- effect on production of TNFα, IL-6 and NO by activated macrophages [1]: no effect

Compound: Cc1cc(C)c(C[C@@H]2NC(=O)[C@H](Cc3ccccc3)NC(=O)[C@H](CC(N)=O)NC(=O)[C@H](CCCCN)NC(=O)[C@@H](NC(=O)[C@@H]3CCCN3)CSSC[C@@H](C(=O)N[C@@H](CCCCN)C(=O)O)NC(=O)[C@H](CO)NC(=O)[C@H]([C@@H](C)O)NC(=O)[C@H](Cc3ccccc3)NC(=O)[C@H]([C@@H](C)O)NC(=O)[C@H](CCCCN)NC(=O)[C@@H](Cc3c[nH]c4ccccc34)NC2=O)c(C)c1 [Analog 2]
- effect on production of TNFα, IL-6 and NO by activated macrophages [1]: no effect

Compound: C[C@@H](O)[C@@H]1NC(=O)[C@H](CCCCN)NC(=O)[C@H](Cc2c[nH]c3ccccc23)NC(=O)[C@H](Cc2ccccc2)NC(=O)[C@H](Cc2ccccc2)NC(=O)[C@H](CC(N)=O)NC(=O)[C@H](CCCCN)NC(=O)[C@@H](NC(=O)[C@@H]2CCCN2)CSSC[C@@H](C(=O)N[C@@H](CCCCN)C(=O)O)NC(=O)[C@H](CO)NC(=O)[C@H](CO)NC(=O)[C@H](Cc2ccccc2)NC1=O [Cortistatin, Cortistatin-14, reference compound] (H-PCKNFFWKTFSSCK-OH; disulfide 2-13)
- main metabolite / main degradation product [2]: deletion of L-Lys14

Compound: CCCCCCCC(=O)N1CCC[C@H]1C(=O)N[C@H]1CSSC[C@@H](C(=O)N[C@@H](CCCCN)C(=O)O)NC(=O)[C@H](CO)NC(=O)[C@H]([C@@H](C)O)NC(=O)[C@H](Cc2ccccc2)NC(=O)[C@H]([C@@H](C)O)NC(=O)[C@H](CCCCN)NC(=O)[C@@H](Cc2c[nH]c3ccccc23)NC(=O)[C@H](Cc2c(C)cc(C)cc2C)NC(=O)[C@H](Cc2ccccc2)NC(=O)[C@H](CC(N)=O)NC(=O)[C@H](CCCCN)NC1=O [Analog 3]
- effect on production of TNFα, IL-6 and NO by activated macrophages [1]: no effect

Compound: Nc1ccc(O)c(C(=O)O)c1 [mesalazine, 5-aminosalycilic acid, reference compound]
- protection from subsequent expositions to TNBS, tolerance effect [3]: fully or partially failed

Compound: Cortistatin-29 (QEGAPPQQSARRDRMPCRNFFWKTFSSCK; disulfide 17-28 (inferred); ends not checked; UniProt O00230 77-105, looked up)
- Colon length ([4]; mean of n=8): 9.08 cm
- Colon weight ([4]; mean of n=8): 621 mg
- Macroscopic score for colon (0-8) ([4]; mean of n=8): 0.87
- Colon length ([4]; mouse 1): 8.9 cm
- Colon weight ([4]; mouse 1): 622 mg
- Macroscopic score for colon (0-8) ([4]; mouse 1): 1
- Colon length ([4]; mouse 2): 9.1 cm
- Colon weight ([4]; mouse 2): 634 mg
- Macroscopic score for colon (0-8) ([4]; mouse 2): 1
- Colon length ([4]; mouse 3): 9.5 cm
- Colon weight ([4]; mouse 3): 578 mg
- Macroscopic score for colon (0-8) ([4]; mouse 3): 0
- Colon length ([4]; mouse 4): 8.4 cm
- Colon weight ([4]; mouse 4): 655 mg
- Macroscopic score for colon (0-8) ([4]; mouse 4): 2
- Colon length ([4]; mouse 5): 9.2 cm
- Colon weight ([4]; mouse 5): 607 mg
- Macroscopic score for colon (0-8) ([4]; mouse 5): 1
- Colon length ([4]; mouse 6): 8.9 cm
- Colon weight ([4]; mouse 6): 632 mg
- Macroscopic score for colon (0-8) ([4]; mouse 6): 1
- Colon length ([4]; mouse 7): 9.6 cm
- Colon weight ([4]; mouse 7): 612 mg
- Macroscopic score for colon (0-8) ([4]; mouse 7): 0
- Colon length ([4]; mouse 8): 9.1 cm
- Colon weight ([4]; mouse 8): 635 mg
- Macroscopic score for colon (0-8) ([4]; mouse 8): 1

Compound: CCCCCCCC(=O)N1CCC[C@H]1C(=O)N[C@H]1CSSC[C@@H](C(=O)N[C@@H](CCCCN)C(=O)O)NC(=O)[C@H](CO)NC(=O)[C@H]([C@@H](C)O)NC(=O)[C@H](Cc2ccccc2)NC(=O)[C@H]([C@@H](C)O)NC(=O)[C@H](CCCCN)NC(=O)[C@@H](Cc2c[nH]c3ccccc23)NC(=O)[C@H](Cc2ccccc2)NC(=O)[C@H](Cc2c(C)cc(C)cc2C)NC(=O)[C@H](CC(N)=O)NC(=O)[C@H](CCCCN)NC1=O [Analog 5]
- Lengths (cm) for colons at day 25 after initiation of DSS treatment ([5]; Group 3: DSS+A5 one cycle, mean of 8 mice): 8.24 cm
- Lengths (cm) for colons at day 25 after initiation of DSS treatment ([5]; Group 3: DSS+A5 one cycle, mouse 1): 8.15 cm
- Lengths (cm) for colons at day 25 after initiation of DSS treatment ([5]; Group 3: DSS+A5 one cycle, mouse 2): 8.78 cm
- Lengths (cm) for colons at day 25 after initiation of DSS treatment ([5]; Group 3: DSS+A5 one cycle, mouse 3): 7.86 cm
- Lengths (cm) for colons at day 25 after initiation of DSS treatment ([5]; Group 3: DSS+A5 one cycle, mouse 5): 8.77 cm
- Lengths (cm) for colons at day 25 after initiation of DSS treatment ([5]; Group 3: DSS+A5 one cycle, mouse 6): 7.24 cm
- Lengths (cm) for colons at day 25 after initiation of DSS treatment ([5]; Group 3: DSS+A5 one cycle, mouse 7): 7.02 cm
- Lengths (cm) for colons at day 25 after initiation of DSS treatment ([5]; Group 3: DSS+A5 one cycle, mouse 8): 9.14 cm
- Lengths (cm) for colons at day 25 after initiation of DSS treatment ([5]; Group 4: DSS+A5 two cycles, mean of 8 mice): 9.64 cm
- Lengths (cm) for colons at day 25 after initiation of DSS treatment ([5]; Group 4: DSS+A5 two cycles, mouse 3): 9.85 cm
- Lengths (cm) for colons at day 25 after initiation of DSS treatment ([5]; Group 4: DSS+A5 two cycles, mouse 5): 9.34 cm
- Lengths (cm) for colons at day 25 after initiation of DSS treatment ([5]; Group 4: DSS+A5 two cycles, mouse 7): 9.61 cm
- Lengths (cm) for colons at day 25 after initiation of DSS treatment ([5]; Group 4: DSS+A5 two cycles, mouse 8): 9.15 cm
- Colon length ([4]; mean of n=8): 8.65 cm
- Colon weight ([4]; mean of n=8): 625 mg
- Macroscopic score for colon (0-8) ([4]; mean of n=8): 1
- Colon weight ([4]; mouse 1): 624 mg
- Macroscopic score for colon (0-8) ([4]; mouse 1): 1
- Colon length ([4]; mouse 2): 8.7 cm
- Colon weight ([4]; mouse 2): 631 mg
- Macroscopic score for colon (0-8) ([4]; mouse 2): 1
- Colon length ([4]; mouse 3): 9.3 cm
- Colon weight ([4]; mouse 3): 581 mg
- Macroscopic score for colon (0-8) ([4]; mouse 3): 0
- Colon length ([4]; mouse 4): 7.8 cm
- Colon weight ([4]; mouse 4): 662 mg
- Macroscopic score for colon (0-8) ([4]; mouse 4): 2
- Colon length ([4]; mouse 5): 9.2 cm
- Colon weight ([4]; mouse 5): 611 mg
- Macroscopic score for colon (0-8) ([4]; mouse 5): 0
- Colon length ([4]; mouse 6): 8.4 cm
- Colon weight ([4]; mouse 6): 597 mg
- Macroscopic score for colon (0-8) ([4]; mouse 6): 1
- Colon length ([4]; mouse 7): 8.6 cm
- Colon weight ([4]; mouse 7): 624 mg
- Macroscopic score for colon (0-8) ([4]; mouse 7): 1
- Colon length ([4]; mouse 8): 8.1 cm
- Colon weight ([4]; mouse 8): 677 mg
- Macroscopic score for colon (0-8) ([4]; mouse 8): 2
- main metabolite / main degradation product [2]: peptide 6
- increase of stability in serum with respect to the native neuropeptide ([2]; from half-lives in serum): ten-fold
- protection from subsequent expositions to TNBS, tolerance effect [3]: significantly protected
- effect on production of TNFα, IL-6 and NO by activated macrophages [1]: strikingly reduced
- protection from body weight loss, bloody diarrhea and mortality [6]: significantly protected
- aqueous solubility [7]: soluble
- effect on clinical signs and survival ([8]; curative regime days 3, 4, 5, i.p. or s.c. 0.4 mg/kg, n=8): significantly effective
- effectiveness of oral administration versus i.p. and s.c. ([8]; curative regime, oral): less effective
